Measured values as given in US20240109900A1, “AZABICYCLIC SHP2 INHIBITORS” (IRBM S.P.A., priority 2021, published 2024).

Tests used:
[1] = target: SHP-2 enzyme (Met1-Leu525) (Homo sapiens (Human), UniProt Q06124); test: SHP2 inhibition enzymatic assay; type: biochemical; details: 0.5 nM SHP-2 activated by 500 nM IRS1 peptide, 75 μM DiFMUP substrate; read-out: SHP2wt-IC50
Method in brief: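 SHP-2 (Met1-Leu525), 0.5 nM, activated with 500 nM IRS1 bis-phosphopeptide, preincubated 30 min with compounds in HEPES pH 7.2 buffer with 5 mM DTT. 75 μM DiFMUP added for 30 min at room temperature, stopped with bpV; fluorescence read. IC50 from four-parameter logistic fit of % inhibition.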

[2] = test system: ERK phosphorylation in KYSE-520 cells; test: Phospho-ERK cellular assay; type: cell-based; details: Homo sapiens, KYSE-520, 2 h, KYSE-520 cells, 2 h at 37° C., phospho-ERK1/2 (Thr202/Tyr204) TR-FRET; read-out: PERK IC50
Method in brief: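 TR-FRET read-out of ERK1/2 Thr202/Tyr204 phosphorylation was taken after overnight antibody incubation at room temperature. Before that, KYSE-520 cells were treated 2 h at 37 °C with compound dilutions and lysed 30 min. Percent inhibition relative to vehicle and cell-free wells was fitted four-parametrically to give IC50.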

Chain of SHP-2 enzyme (Met1-Leu525) (Q06124 1-525): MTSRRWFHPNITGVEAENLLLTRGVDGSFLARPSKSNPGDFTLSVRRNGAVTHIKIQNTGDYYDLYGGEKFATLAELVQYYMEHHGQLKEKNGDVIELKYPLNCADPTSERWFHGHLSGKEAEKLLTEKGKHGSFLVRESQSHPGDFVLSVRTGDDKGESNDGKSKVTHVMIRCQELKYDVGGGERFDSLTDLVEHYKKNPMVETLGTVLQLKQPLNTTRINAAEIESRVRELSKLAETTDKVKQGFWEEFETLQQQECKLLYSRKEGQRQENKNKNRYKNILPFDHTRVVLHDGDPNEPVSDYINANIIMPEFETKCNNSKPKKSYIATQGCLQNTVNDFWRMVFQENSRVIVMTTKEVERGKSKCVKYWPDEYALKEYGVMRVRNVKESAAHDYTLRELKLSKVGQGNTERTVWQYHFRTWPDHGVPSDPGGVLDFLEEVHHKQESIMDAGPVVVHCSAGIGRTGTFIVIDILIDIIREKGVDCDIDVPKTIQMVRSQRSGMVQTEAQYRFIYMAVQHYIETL

Q: `Cn1cc2c(Cl)c(-c3n[nH]c4nc(N5CC[C@@H]6[C@H](C5)[C@@]6(CN)c5ccccc5F)cnc34)ccc2n1` [Example 203, ((1S,6R,7R)-3-(3-(4-chloro-2-methyl-2H-indazol-5-yl)-1H-pyrazolo[3,4-b]pyrazin-6-yl)-7-(2-fluorophenyl)-3-azabicyclo[4.1.0]heptan-7-yl)methanamine] was tested. Which IC50 [1] did it give?
A: The IC50 was < 500 nM.

Q: What about the IC50 [2] of the same compound?
A: Its IC50 is < 1000 nM.

Q: What does the source list for `Cc1c(-c2n[nH]c3nc(N4CC[C@@H]5[C@H](C4)[C@@]5(CN)c4ccccc4F)cnc23)ccc2c1nnn2C` [Example 204, ((1S,6R,7R)-3-(3-(1,4-dimethyl-1H-benzo[d][1,2,3]triazol-5-yl)-1H-pyrazolo[3,4-b]pyrazin-6-yl)-7-(2-fluorophenyl)-3-azabicyclo[4.1.0]heptan-7-yl)methanamine]?
A: IC50 [1]: < 500 nM; IC50 [2]: < 1000 nM

Q: Which results are given for `Cc1c(-c2n[nH]c3nc(N4CC[C@@H]5[C@H](C4)[C@@]5(CN)c4ccccc4F)cnc23)ccc2nn(C)nc12` [Example 205, ((1S,6R,7R)-3-(3-(2,4-dimethyl-2H-benzo[d][1,2,3]triazol-5-yl)-1H-pyrazolo[3,4-b]pyrazin-6-yl)-7-(2-fluorophenyl)-3-azabicyclo[4.1.0]heptan-7-yl)methanamine]?
A: IC50 [1]: < 500 nM; IC50 [2]: < 1000 nM

Q: Which IC50 [1] does the source give for `CC1(C)C(=O)Nc2ccc(-c3n[nH]c4nc(N5CC[C@@H]6[C@H](C5)[C@@]6(CN)c5ccccc5F)cnc34)cc21` [Example 206, 5-(6-((1S,6R,7R)-7-(aminomethyl)-7-(2-fluorophenyl)-3-azabicyclo[4.1.0]heptan-3-yl)-1H-pyrazolo[3,4-b]pyrazin-3-yl)-3,3-dimethylindolin-2-one] here?
A: The IC50 was < 500 nM.

Q: And the IC50 [2]?
A: Its IC50 is < 1000 nM.

Q: `NC[C@]1(c2ccccc2F)[C@@H]2CCN(c3cnc4c(-c5ccc6c(c5Cl)NC(=O)CO6)n[nH]c4n3)C[C@@H]21` [Example 207, 6-(6-((1S,6R,7R)-7-(aminomethyl)-7-(2-fluorophenyl)-3-azabicyclo[4.1.0]heptan-3-yl)-1H-pyrazolo[3,4-b]pyrazin-3-yl)-5-chloro-2H-benzo[b][1,4]oxazin-3(4H)-one] was tested. Which IC50 [1] did it give?
A: Its IC50 is < 500 nM.

Q: And the IC50 [2]?
A: Its IC50 is < 1000 nM.

Q: With `CCn1cc2c(Cl)c(-c3n[nH]c4nc(N5CC[C@@H]6[C@H](C5)[C@@]6(CN)c5ccccc5F)cnc34)ccc2n1` [Example 208, ((1S,6R,7R)-3-(3-(4-chloro-2-ethyl-2H-indazol-5-yl)-1H-pyrazolo[3,4-b]pyrazin-6-yl)-7-(2-fluorophenyl)-3-azabicyclo[4.1.0]heptan-7-yl)methanamine] as the compound, how does the IC50 [1] read?
A: Its IC50 is < 500 nM.

Q: And the IC50 [2]?
A: Its IC50 is < 1000 nM.

Q: Which results are given for `NC[C@]1(c2ccccc2F)[C@@H]2CCN(c3cnc4c(-c5cccc6c(=O)[nH]ccc56)n[nH]c4n3)C[C@@H]21` [Example 209, 5-(6-((1S,6R,7R)-7-(aminomethyl)-7-(2-fluorophenyl)-3-azabicyclo[4.1.0]heptan-3-yl)-1H-pyrazolo[3,4-b]pyrazin-3-yl)isoquinolin-1(2H)-one]?
A: IC50 [1]: < 500 nM; IC50 [2]: < 1000 nM

Q: `NC[C@]1(c2ccccc2F)[C@@H]2CCN(c3cnc4c(-c5cccc6[nH]c(=O)ccc56)n[nH]c4n3)C[C@@H]21` [Example 210, 5-(6-((1S,6R,7R)-7-(aminomethyl)-7-(2-fluorophenyl)-3-azabicyclo[4.1.0]heptan-3-yl)-1H-pyrazolo[3,4-b]pyrazin-3-yl)quinolin-2(1H)-one] was tested. Which IC50 [1] did it give?
A: Its IC50 is < 500 nM.

Q: And the IC50 [2]?
A: The IC50 was < 1000 nM.

Q: Which IC50 [1] does the source give for `Cc1c(-c2n[nH]c3nc(N4CC[C@@H]5[C@H](C4)[C@@]5(CN)c4ccccc4F)cnc23)ccn2cnnc12` [Example 211, ((1S,6R,7R)-7-(2-fluorophenyl)-3-(3-(8-methyl-[1,2,4]triazolo[4,3-a]pyridin-7-yl)-1H-pyrazolo[3,4-b]pyrazin-6-yl)-3-azabicyclo[4.1.0]heptan-7-yl)methanamine] here?
A: Its IC50 is < 500 nM.

Q: And the IC50 [2]?
A: Its IC50 is > 5000 nM.
